The values that follow come from patent US20020102893A1, “ANTI-TACK SPANDEX FIBERS CONTAINING ANTIMICROBIAL AGENTS THEREIN AND FABRICS MADE THEREFROM” (priority 2000, published 2002).

Data set [1] in a line: Discoloration (photoreduction) of spandex yarns after exposure to indoor fluorescent light. The class given is physicochemical. The conditions noted are these: after 1 month under typical indoor (fluorescent) light; antimicrobial within spandex yarn. The procedure:
The Example spandex yarns were also tested for discoloration (photoreduction) after exposure to typical indoor (fluorescent) light after 1 month of such storage. […] Thus, for this purpose AlphaSan®-type antimicrobials are most preferred. […] Thus, for anti-tack, discoloration, and resiliency within and on the target spandex yarns, the AlphaSan® antimicrobials are, again, most preferred. The discoloration results are as follows, again with a non-antimicrobial control for comparison: […]

The conditions of data set [2]: no test described; cited from earlier work.

Turning to `Oc1cc(Cl)ccc1Oc1ccc(Cl)cc1Cl` [triclosan], in data set [1], the “discoloration (photoreduction) performance, in words” value was “excellent colorations”. The water solubility result in data set [2] is recorded as “highly water soluble”.
